Assay results published in patent US6706257B1, “Sunless tanning products and processes” (Discovery Partners, LLC, priority 2001, dated 2004).

Columns and labels:
[1] = Solubility of MSM in water; assay type: physicochemical; settings: by weight
skin = experiment: Tanning effect of MSM additions to DHA formulas or accelerators; assay type: in vivo, human
Excerpt: Applicant has conducted experiments with a typical oil-in-water self tanning cream containing DHA as the self tanning agent with or without the inclusion of MSM. […] Applicant also conducted experiments with DHA containing self-tanning liquid mousse compositions, with and without MSM.

solubility of MSM in water [1]: ~20%
SMILES: CS(C)(=O)=O [MSM, methylsulfonyl methane]
tanning effect (skin; 0.1% addition of MSM): ineffective
tanning effect (skin; addition of 5% MSM to DHA formulas, with or without soluble dyes): enhances tanning effect producing a more intense hue that lasts longer
